According to patent US11427558B1, “Indazoles and azaindazoles as LRRK2 inhibitors” (ESCAPE Bio, Inc., priority 2019, dated 2022):

What was measured:
[1] = target: Recombinant G2019S-LRRK2 protein (Homo sapiens (Human), UniProt Q5S007, G2019S); assay: LRRK2 kinase activity, LanthaScreen TR-FRET assay (G2019S); type: biochemical; settings: LRRKtide 400 nM, 25 μM ATP, 60 min
Description: (§1) LRRK2 kinase activity was measured using a LanthaScreen™ Kinase Activity Assay from ThermoFisher Scientific. Recombinant wild type or G2019S-LRRK2 protein (Life Technologies, PR8604B or PV4881, respectively), was incubated with a fluorescein-labeled peptide substrate called LRRKtide that is based upon ezrin/radixin/moesin (ERM) (Life Technologies, PV4901) in the presence of ATP and serially diluted compound. […] Compound-dependent inhibition of the TR-FRET signal was used to generate a concentration-response curve for IC50 determination.
(§2) After 60 min incubation at room temperature, the reaction was stopped by addition of 10 μL of 2× stop solution containing a final concentration of 2 nM anti-pERM antibody and 10 mM EDTA. […] The ratio of the 520 nm and 495 nm emission was used to analyze the data.

[2] = target: Recombinant wild type LRRK2 protein (Homo sapiens (Human), UniProt Q5S007); assay: LRRK2 kinase activity, LanthaScreen TR-FRET assay (wild type); type: biochemical; settings: LRRKtide 400 nM, 25 μM ATP, 60 min; read-out: LRRK2 WT IC50
Description: as §1, §2

Sequence of Recombinant G2019S-LRRK2 protein (Q5S007 whole entry G2019S): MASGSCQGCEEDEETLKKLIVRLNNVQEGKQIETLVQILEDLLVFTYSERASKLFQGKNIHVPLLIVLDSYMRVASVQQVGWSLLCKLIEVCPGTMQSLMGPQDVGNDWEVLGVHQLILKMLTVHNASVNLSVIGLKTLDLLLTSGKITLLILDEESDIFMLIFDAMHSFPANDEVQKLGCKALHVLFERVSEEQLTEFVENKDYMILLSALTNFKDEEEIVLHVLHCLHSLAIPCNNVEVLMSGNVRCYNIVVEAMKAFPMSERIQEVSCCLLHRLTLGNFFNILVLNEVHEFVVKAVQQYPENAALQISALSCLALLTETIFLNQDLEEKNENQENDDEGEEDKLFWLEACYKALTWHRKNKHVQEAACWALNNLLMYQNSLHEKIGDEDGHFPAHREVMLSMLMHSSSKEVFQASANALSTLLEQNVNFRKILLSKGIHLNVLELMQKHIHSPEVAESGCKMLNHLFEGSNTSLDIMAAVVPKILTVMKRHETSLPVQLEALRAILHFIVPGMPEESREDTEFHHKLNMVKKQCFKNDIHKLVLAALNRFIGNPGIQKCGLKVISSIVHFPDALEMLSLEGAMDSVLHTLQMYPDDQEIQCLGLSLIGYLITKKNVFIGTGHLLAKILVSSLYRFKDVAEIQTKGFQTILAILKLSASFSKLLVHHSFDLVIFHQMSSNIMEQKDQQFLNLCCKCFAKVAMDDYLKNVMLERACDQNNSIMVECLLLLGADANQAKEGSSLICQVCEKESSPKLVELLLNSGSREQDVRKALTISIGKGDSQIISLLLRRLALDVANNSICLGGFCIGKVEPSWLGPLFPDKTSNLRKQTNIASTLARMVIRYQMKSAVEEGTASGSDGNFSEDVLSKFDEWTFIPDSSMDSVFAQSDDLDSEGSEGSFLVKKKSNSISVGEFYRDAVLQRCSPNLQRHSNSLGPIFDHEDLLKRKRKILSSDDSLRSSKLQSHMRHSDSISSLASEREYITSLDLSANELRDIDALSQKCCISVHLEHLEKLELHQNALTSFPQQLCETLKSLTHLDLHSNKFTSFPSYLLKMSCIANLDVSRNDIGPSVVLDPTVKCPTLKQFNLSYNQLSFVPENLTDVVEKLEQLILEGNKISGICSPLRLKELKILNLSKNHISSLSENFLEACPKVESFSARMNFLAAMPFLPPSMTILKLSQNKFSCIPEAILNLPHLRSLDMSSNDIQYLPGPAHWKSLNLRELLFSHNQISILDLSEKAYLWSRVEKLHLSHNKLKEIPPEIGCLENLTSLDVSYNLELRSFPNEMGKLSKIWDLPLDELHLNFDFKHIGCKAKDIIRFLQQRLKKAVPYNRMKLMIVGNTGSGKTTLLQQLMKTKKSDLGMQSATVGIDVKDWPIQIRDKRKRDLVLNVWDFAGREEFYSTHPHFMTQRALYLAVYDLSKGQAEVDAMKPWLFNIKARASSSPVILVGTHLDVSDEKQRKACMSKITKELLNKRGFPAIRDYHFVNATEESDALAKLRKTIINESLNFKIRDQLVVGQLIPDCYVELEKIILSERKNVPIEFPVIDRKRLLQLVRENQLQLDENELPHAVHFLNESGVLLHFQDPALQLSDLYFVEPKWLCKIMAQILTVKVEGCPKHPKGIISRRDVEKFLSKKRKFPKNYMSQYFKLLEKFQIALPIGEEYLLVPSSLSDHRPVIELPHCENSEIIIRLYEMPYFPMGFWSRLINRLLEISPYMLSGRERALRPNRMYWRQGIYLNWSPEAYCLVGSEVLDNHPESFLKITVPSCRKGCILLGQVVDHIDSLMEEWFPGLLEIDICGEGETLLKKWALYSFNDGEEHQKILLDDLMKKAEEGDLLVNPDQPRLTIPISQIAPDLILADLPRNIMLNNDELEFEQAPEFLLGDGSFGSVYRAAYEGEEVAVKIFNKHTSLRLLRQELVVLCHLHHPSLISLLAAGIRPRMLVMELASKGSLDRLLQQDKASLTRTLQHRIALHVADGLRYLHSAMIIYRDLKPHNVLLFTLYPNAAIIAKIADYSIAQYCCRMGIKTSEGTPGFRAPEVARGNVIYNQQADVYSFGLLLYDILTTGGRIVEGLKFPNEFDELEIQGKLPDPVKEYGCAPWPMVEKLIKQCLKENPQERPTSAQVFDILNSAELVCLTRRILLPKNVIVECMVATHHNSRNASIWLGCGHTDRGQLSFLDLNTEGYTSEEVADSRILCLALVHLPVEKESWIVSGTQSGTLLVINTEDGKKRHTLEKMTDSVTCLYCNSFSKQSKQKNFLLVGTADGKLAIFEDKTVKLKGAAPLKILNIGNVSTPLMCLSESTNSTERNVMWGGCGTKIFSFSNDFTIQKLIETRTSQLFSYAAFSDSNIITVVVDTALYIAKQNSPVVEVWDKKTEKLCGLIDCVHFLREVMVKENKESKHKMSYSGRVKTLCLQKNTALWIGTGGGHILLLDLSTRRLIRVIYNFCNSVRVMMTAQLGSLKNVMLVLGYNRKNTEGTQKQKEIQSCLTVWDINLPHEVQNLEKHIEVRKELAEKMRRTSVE
Sequence of Recombinant wild type LRRK2 protein (Q5S007 whole entry): as the sequence (Q5S007 whole entry G2019S) above, with S2019G counted along it

Row | Compound | IC50 [1] | IC50 [2]
1 | 2-Chloro-3-cyano-N-(3-(1-(difluoromethyl)-1H-pyrazol-3-yl)-1H-indazol-5-yl)benzamide [Example 166] | < 100 nM | < 100 nM
2 | 4-Cyano-N-(3-(1-(difluoromethyl)-1H-pyrazol-3-yl)-1H-indazol-5-yl)-2-fluoro-6-methylbenzamide [Example 165] | < 100 nM | < 100 nM
3 | N#Cc1cnc(C(=O)Nc2ccc3[nH]nc(-c4ccoc4)c3c2)c(F)c1 [Example 1, 5-Cyano-3-fluoro-N-(3-(furan-3-yl)-1H-indazol-5-yl)picolinamide] | < 100 nM | < 100 nM
4 | N#Cc1ccc(C(=O)Nc2ccc3[nH]nc(-c4ccoc4)c3c2)c(Br)c1 [Example 2, 2-Bromo-4-cyano-N-(3-(furan-3-yl)-1H-indazol-5-yl)benzamide] | < 100 nM | < 100 nM
5 | N#Cc1ccc(C(=O)Nc2ccc3[nH]nc(-c4ccoc4)c3c2)c(F)c1 [Example 3, 4-Cyano-2-fluoro-N-(3-(furan-3-yl)-1H-indazol-5-yl)benzamide] | < 100 nM | < 100 nM
6 | N#Cc1ccc(C(=O)Nc2ccc3[nH]nc(-c4ccoc4)c3c2)c(I)c1 [Example 4, 4-Cyano-N-(3-(furan-3-yl)-1H-indazol-5-yl)-2-iodobenzamide] | < 100 nM | < 100 nM
7 | N#Cc1ccc(C(=O)Nc2ccc3[nH]nc(-c4ccoc4)c3c2)c(Cl)c1 [Example 5, 2-Chloro-4-cyano-N-(3-(furan-3-yl)-1H-indazol-5-yl)benzamide] | < 100 nM | < 100 nM
8 | N#Cc1ccc(C(=O)Nc2ccc3[nH]nc(-c4ccoc4)c3c2)c(C(F)(F)F)c1 [Example 6, 4-Cyano-N-(3-(furan-3-yl)-1H-indazol-5-yl)-2-(trifluoromethyl)benzamide] | < 100 nM | < 100 nM
9 | N#Cc1cc(F)c(C(=O)Nc2ccc3[nH]nc(-c4ccoc4)c3c2)c(F)c1 [Example 7, 4-Cyano-2,6-difluoro-N-(3-(furan-3-yl)-1H-indazol-5-yl)benzamide] | < 100 nM | < 100 nM
10 | Cc1nc(C#N)ccc1C(=O)Nc1ccc2[nH]nc(-c3ccoc3)c2c1 [Example 8, 6-Cyano-N-(3-(furan-3-yl)-1H-indazol-5-yl)-2-methylnicotinamide] | < 100 nM | 100 to 1000 nM
11 | N#Cc1ccc(C(=O)Nc2ccc3[nH]nc(-c4ccoc4)c3c2)cn1 [Example 9, 6-Cyano-N-(3-(furan-3-yl)-1H-indazol-5-yl)nicotinamide] | < 100 nM | 100 to 1000 nM
12 | Cc1cc(C#N)cc(C)c1C(=O)Nc1ccc2[nH]nc(-c3ccoc3)c2c1 [Example 10, 4-Cyano-N-(3-(furan-3-yl)-1H-indazol-5-yl)-2,6-dimethylbenzamide] | < 100 nM | < 100 nM
13 | N#Cc1ccc(C(=O)Nc2ccc3[nH]nc(-c4ccoc4)c3c2)cc1 [Example 11, 4-Cyano-N-(3-(furan-3-yl)-1H-indazol-5-yl)benzamide] | < 100 nM | 100 to 1000 nM
14 | Cc1cc(C#N)ccc1C(=O)Nc1ccc2[nH]nc(C)c2c1 [Example 12, 4-Cyano-2-methyl-N-(3-methyl-1H-indazol-5-yl)benzamide] | < 100 nM | 100 to 1000 nM
15 | Cc1nc(C(=O)Nc2ccc3[nH]nc(-c4ccoc4)c3c2)ccc1C#N [Example 13, 5-Cyano-N-(3-(furan-3-yl)-1H-indazol-5-yl)-6-methylpicolinamide] | < 100 nM | 100 to 1000 nM
17 | COc1cc(C#N)ccc1C(=O)Nc1ccc2[nH]nc(-c3ccoc3)c2c1 [Example 15, 4-Cyano-N-(3-(furan-3-yl)-1H-indazol-5-yl)-2-methoxybenzamide] | < 100 nM | 100 to 1000 nM
18 | N#Cc1ccc(C(=O)Nc2ccc3[nH]nc(-c4ccoc4)c3c2)nc1 [Example 16, 5-Cyano-N-(3-(furan-3-yl)-1H-indazol-5-yl)picolinamide] | < 100 nM | 100 to 1000 nM
19 | Cc1ccc(C#N)cc1C(=O)Nc1ccc2[nH]nc(-c3ccoc3)c2c1 [Example 17, 5-Cyano-N-(3-(furan-3-yl)-1H-indazol-5-yl)-2-methylbenzamide] | < 100 nM | < 100 nM
20 | Cc1cc(C#N)ccc1C(=O)Nc1ccc2[nH]nc(-c3ccoc3)c2c1 [Example 18, 4-Cyano-N-(3-(furan-3-yl)-1H-indazol-5-yl)-2-methylbenzamide] | < 100 nM | < 100 nM

Row | Compound | IC50 [1] | IC50 [2]
21 | Cc1c(C#N)cccc1C(=O)Nc1ccc2[nH]nc(-c3ccoc3)c2c1 [Example 19, 3-Cyano-N-(3-(furan-3-yl)-1H-indazol-5-yl)-2-methylbenzamide] | < 100 nM | < 100 nM
22 | N#Cc1ncc(C(=O)Nc2ccc3[nH]nc(-c4ccoc4)c3c2)s1 [Example 20, 2-Cyano-N-(3-(furan-3-yl)-1H-indazol-5-yl)thiazole-5-carboxamide] | < 100 nM | 100 to 1000 nM
23 | N#Cc1cccc(C(=O)Nc2ccc3[nH]nc(-c4ccncc4)c3c2)c1 [Example 21, 3-Cyano-N-(3-(pyridin-4-yl)-1H-indazol-5-yl)benzamide] | < 100 nM | < 100 nM
24 | N#Cc1cc(C(=O)Nc2ccc3[nH]nc(-c4ccncc4)c3c2)ccn1 [Example 22, 2-Cyano-N-(3-(pyridin-4-yl)-1H-indazol-5-yl)isonicotinamide] | < 100 nM | < 100 nM
25 | N#Cc1ccnc(C(=O)Nc2ccc3[nH]nc(-c4ccncc4)c3c2)c1 [Example 23, 4-Cyano-N-(3-(pyridin-4-yl)-1H-indazol-5-yl)picolinamide] | < 100 nM | 100 to 1000 nM
26 | N#Cc1cncc(C(=O)Nc2ccc3[nH]nc(-c4ccncc4)c3c2)c1 [Example 24, 5-Cyano-N-(3-(pyridin-4-yl)-1H-indazol-5-yl)nicotinamide] | 100 to 1000 nM | 100 to 1000 nM
27 | N#Cc1ncc(C(=O)Nc2ccc3[nH]nc(-c4ccncc4)c3c2)cn1 [Example 25, 2-Cyano-N-(3-(pyridin-4-yl)-1H-indazol-5-yl)pyrimidine-5-carboxamide] | 100 to 1000 nM | 100 to 1000 nM
28 | Cc1c(C(=O)Nc2ccc3[nH]nc(-c4ccccc4)c3c2)cc(C#N)n1C [Example 26, 5-Cyano-1,2-dimethyl-N-(3-phenyl-1H-indazol-5-yl)-1H-pyrrole-3-carboxamide] | < 100 nM | 100 to 1000 nM
29 | Cc1oc(C#N)cc1C(=O)Nc1ccc2[nH]nc(-c3ccccc3)c2c1 [Example 27, 5-Cyano-2-methyl-N-(3-phenyl-1H-indazol-5-yl)furan-3-carboxamide] | < 100 nM | 100 to 1000 nM
30 | Cc1ccc(-c2n[nH]c3ccc(NC(=O)c4ncc(C#N)cc4C)cc23)cc1C [Example 28, 5-Cyano-N-(3-(3,4-dimethylphenyl)-1H-indazol-5-yl)-3-methylpicolinamide] | < 100 nM | 100 to 1000 nM
31 | Cc1cc(C#N)cnc1C(=O)Nc1ccc2[nH]nc(-c3ccco3)c2c1 [Example 29, 5-Cyano-N-(3-(furan-2-yl)-1H-indazol-5-yl)-3-methylpicolinamide] | < 100 nM | 100 to 1000 nM
32 | Cc1cc(C#N)cnc1C(=O)Nc1ccc2[nH]nc(-c3cccc(N(C)C)c3)c2c1 [Example 30, 5-Cyano-N-(3-(3-(dimethylamino)phenyl)-1H-indazol-5-yl)-3-methylpicolinamide] | < 100 nM | 100 to 1000 nM
33 | Cc1cc(C#N)cnc1C(=O)Nc1ccc2[nH]nc(-c3ccncc3)c2c1 [Example 31, 5-Cyano-3-methyl-N-(3-(pyridin-4-yl)-1H-indazol-5-yl)picolinamide] | < 100 nM | 100 to 1000 nM
34 | Cc1cc(C#N)cnc1C(=O)Nc1ccc2[nH]nc(-c3cnn(C(F)F)c3)c2c1 [Example 32, 5-Cyano-N-(3-(1-(difluoromethyl)-1H-pyrazol-4-yl)-1H-indazol-5-yl)-3-methylpicolinamide] | < 100 nM | 100 to 1000 nM
35 | Cc1cc(C#N)cnc1C(=O)Nc1ccc2[nH]nc(-c3cnn(C4CCOCC4)c3)c2c1 [Example 33, 5-cyano-3-methyl-N-(3-(1-(tetrahydro-2H-pyran-4-yl)-1H-pyrazol-4-yl)-1H-indazol-5-yl)picolinamide] | < 100 nM | < 100 nM
36 | Cc1cc(C#N)cnc1C(=O)Nc1ccc2[nH]nc(-c3cccc(S(C)(=O)=O)c3)c2c1 [Example 34, 5-Cyano-3-methyl-N-(3-(3-(methylsulfonyl)phenyl)-1H-indazol-5-yl)picolinamide] | < 100 nM | < 100 nM
37 | Cc1cc(C#N)cnc1C(=O)Nc1ccc2[nH]nc(-c3ccc(C(F)(F)F)cc3)c2c1 [Example 35, 5-Cyano-3-methyl-N-(3-(4-(trifluoromethyl)phenyl)-1H-indazol-5-yl)picolinamide] | 100 to 1000 nM | > 10000 nM
38 | Cc1cc(C#N)cnc1C(=O)Nc1ccc2[nH]nc(-c3cnoc3C)c2c1 [Example 36, 5-Cyano-3-methyl-N-(3-(5-methylisoxazol-4-yl)-1H-indazol-5-yl)picolinamide] | < 100 nM | > 10000 nM
39 | Cc1cc(C#N)cnc1C(=O)Nc1ccc2[nH]nc(-c3ccoc3)c2n1 [Example 105, 5-Cyano-N-(3-(furan-3-yl)-1H-pyrazolo[4,3-b]pyridin-5-yl)-3-methylpicolinamide] | – | 100 to 1000 nM
